Data as given in patent publication EP3372592A1, “SOLID FORMS OF LESINURAD AMINE SALTS” (Zentiva, k.s., priority 2017, dated 2018).

Legend:
[1] = Determining the dissolution rate using the true dissolution method (Sirius inForm, pressed disks); type: physicochemical; conditions: for dissolution rate: true dissolution disks d = 3 mm, 40 ml acetate-phosphate buffer pH 6.8, 100 rpm, UV/Vis; for times more soluble than crystalline form 2 of lesinurad free acid: ratio of dissolution rates measured under identical conditions
Procedure: The dissolution rate was measured using a Sirius inForm dissolution device. Disks for true dissolution with the surface area available for dissolution of 0.071 cm^2 (d = 0.3 cm) were prepared using a Specac press. The pressing time was 2x2 minutes at the pressing pressure of 100 kg. The dissolution was carried out in 40 ml of a solution at pH 6.8 (38 ml of 150mM NaCl + 2 ml of 150mM NaCl, 100mM CH3COONa, 100mM NaH2PO4), at the constant speed of 100 rpm. Samples were drawn at 5-second intervals and the concentration of dissolved lesinurad was determined by means of an integrated UV/Vis spectrophotometric probe in the wavelength range of 230-400 nm. Disks for measuring true dissolution (d = 3 mm) were produced from the prepared solid forms of lesinurad, i.e. free acid form 2 (reference form), tromethamine salt form I and diethylamine salt, and solid form of lesinurad with urea (form I), with the use of a press. The dissolution was carried out in 40 ml of an acetate-phosphate buffer at pH 6,8 (150mM NaCl, 5mM CH3COONa, 5mM NaH2PO4), at the constant stirring speed of 100 rpm. Samples were drawn at 5-second intervals and the concentration of dissolved lesinurad was determined by means of a UV/Vis spectrophotometer.

[2] = Chemical and polymorphic stability test of the crystalline form; type: physicochemical
Procedure: The prepared crystalline form I was subjected to tests from the point of view of chemical and polymorphic stability. […] The same results were also obtained after 3 days at 80°C.

O=C(O)CSc1nnc(Br)n1-c1ccc(C2CC2)c2ccccc12 [lesinurad free acid (form 2), 2-(5-bromo-4-(1-cyclopropylnaphtalen-4-yl)-4H-1,2,4-triazol-3-ylthio)acetic acid, reference compound]
dissolution rate [1]: 0.42 mg/min/cm^2 | dissolution rate ([1]; listed as crystalline form 2 of lesinurad free acid): 0.42 mg/min/cm^2

O=C(O)CSc1nnc(Br)n1-c1ccc(C2CC2)c2ccccc12 [lesinurad with tromethamine (form I)]
times more soluble than crystalline form 2 of lesinurad free acid ([1]; listed as solid form of lesinurad with tromethamine): about 17 times | dissolution rate [1]: 7.44 mg/min/cm^2 | dissolution rate ([1]; listed as lesinurad with tromethamine): 7.44 mg/min/cm^2 | chemical and polymorphic stability ([2]; after 3 months at 40°C / 75% humidity): did not show any signs of chemical degradation or transition to a different polymorphic form | chemical and polymorphic stability ([2]; after 3 days at 80°C): same results

O=C(O)CSc1nnc(Br)n1-c1ccc(C2CC2)c2ccccc12 [lesinurad with diethylamine]
times more soluble than crystalline form 2 of lesinurad free acid ([1]; listed as salt with diethylamine): ~50 times | dissolution rate [1]: 21.58 mg/min/cm^2 | dissolution rate ([1]; listed as lesinurad with dimethylamine): 21.58 mg/min/cm^2
